Patent US8367086B1, “Process and product for inhibiting or preventing bacterial infections” (S.S. Steiner, Inc., priority 2004, dated 2013)

How the values were obtained:
Format in all cases: cell-based
S. salivarius [1] = assay: paper disc diffusion susceptibility method
Text: (§1) The first test method to be applied was the paper disc diffusion susceptibility method. In this method a filter paper disc impregnated with a chemical is placed on agar, and the chemical will diffuse from the disc into the agar. If an organism is placed on the agar, it will not grow in the area around the disc if it is susceptible to the chemical. This area of no growth around the disc is known as the zone of inhibition. This disc diffusion method for antibiotic susceptibility is known as the Kirby-Bauer method. In testing the effectiveness of various antibiotics, all factors, e.g., the agar utilized, the depth of the agar, the amount of organism used, and incubation conditions, are maintained constant for the various organisms and antibiotics being tested. […] The size of the zone of inhibition of the particular antimicrobial substance may also be influenced by the diffusion capability of that substance.
(§2) In performing the disc diffusion method tests, a bacterial suspension having an inoculum density of approximately 1×10^8 CFU/ml (colony forming units) was added to 10 ml trypticase soy agar at 46° C. It was mixed thoroughly by vortexing and then poured into a plastic Petri dish. After hardening of the agar, filter paper discs (φ7 mm.) made from Whatman filter paper No. 1 that had been impregnated by the manufacturer, Becton Dickinson, Inc., with the suitable antibiotic, were placed on the agar. In this series of tests the ability of each antibiotic per se to control the growth of the bacteria was measured.
(§3) Another series of agar containing Petri dishes was then prepared using the same bacteria and density thereof as had been prepared for the prior test series. However, here hop compounds were also present in the agar. The hop extract, either lupulone, humulone or xanthohumol, was dissolved in ethanol. While certain of the hop components are only slightly soluble in water, they are very soluble in ethanol. An ethanol control was prepared in the same way.
(§4) The size of the inhibition zones was measured to the nearest mm.
(§5) The concentration of β-acid and xanthohumol is set forth in μg/ml. The zone of inhibition was measured in centimeters. […]

B. subtilis = assay: paper disc diffusion susceptibility method
Text: as §1, §2, §3, §4, §5

B. megaterium [2] = assay: paper disc diffusion susceptibility method
Text: as §1, §2, §3, §4, §5

[3] = test system: Staphlococcus saprophyticus; assay: paper disc diffusion susceptibility (Kirby-Bauer) method; conditions: for zone of inhibition, Xanthohumol Avg / zone of inhibition, Xanthohumol Expt #1 / zone of inhibition, Xanthohumol Expt #2 / zone of inhibition, β-acid Avg / zone of inhibition, β-acid Exp #1: S. saprophyticus; for zone of inhibition, Experiment 1 Control / zone of inhibition, Experiment 2 Control: antibiotic disc alone; for zone of inhibition, Experiment 1 Control / zone of inhibition, Experiment 2 Control / zone of inhibition, Experiment 1 0.2 μg/ml β-resin / zone of inhibition, Experiment 2 0.2 μg/ml β-resin: 24 hours; for zone of inhibition, Experiment 1 0.2 μg/ml β-resin / zone of inhibition, Experiment 2 0.2 μg/ml β-resin: antibiotic disc with 0.2 μg/ml β-resin in the agar
Text: as §1, §2, §3, §4, §5

S. salivarius [4] = assay: minimum inhibitory concentration (MIC) method; conditions: 37° C. 24 hours
Description: (§6) Another method of determining antimicrobial activity is to assess the Minimum inhibitory concentration (MIC) of the composition under test. […] Thereafter, increased concentrations will have a limiting effect on growth, until the concentration is reached where no growth relative to the control is observed. That point of no growth is the minimum inhibitory concentration. […] A positive control with the bacterium alone was prepared as well as an ethanol control. The tubes were incubated at 37° C. for 24 hours and growth of the bacterium was determined by observing the change in turbidity.

B. megaterium [5] = assay: minimum inhibitory concentration (MIC) method; conditions: 37° C. 24 hours
Description: as §6

S. saprophyticus = assay: minimum inhibitory concentration (MIC) method; conditions: 37° C. 24 hours
Description: as §6, with “turbidity. […] Since the filing of the original application Ser. […] Pseudomonas fluorescens, Pseudomonas aeruginosa, Proteus vulgaris, Serratia marcescens, Proteus mirabilis and Enterobacter clocae.” for “turbidity.”

[6] = ciprofloxacin 5 μg on disc, xanthohumol 0 μg/ml
[7] = ciprofloxacin 5 μg on disc, xanthohumol 10 μg/ml
[8] = ciprofloxacin 5 μg on disc, xanthohumol 3 μg/ml
[9] = tobramycin 10 μg on disc, xanthohumol 0 μg/ml
[10] = tobramycin 10 μg on disc, xanthohumol 10 μg/ml
[11] = tobramycin 10 μg on disc, β-acid 0 μg/ml
[12] = tobramycin 10 μg on disc, β-acid 30 μg/ml
[13] = tobramycin 10 μg on disc, xanthohumol 3 μg/ml
[14] = tobramycin 10 μg on disc, β-acid 3 μg/ml

Compound: O=C(O)c1cn(C2CC2)c2cc(N3CCNCC3)c(F)cc2c1=O [ciprofloxacin, 1-cyclopropyl-6-fluoro-1,4-dihyro-4-oxo-7-(1-piperaznyl)-3-quinolinecarboxylic acid]
- zone of inhibition, Xanthohumol Avg (S. salivarius [1]; [6]): 0.8 centimeters
- zone of inhibition, Xanthohumol Expt #1 (S. salivarius [1]; [6]): 0.8 centimeters
- zone of inhibition, Xanthohumol Expt #2 (S. salivarius [1]; [6]): 0.8 centimeters
- zone of inhibition, Xanthohumol Avg (S. salivarius [1]; [7]): 2.0 centimeters
- zone of inhibition, Xanthohumol Expt #1 (S. salivarius [1]; [7]): 1.9 centimeters
- zone of inhibition, Xanthohumol Expt #2 (S. salivarius [1]; [7]): 2.1 centimeters
- zone of inhibition, Xanthohumol Avg (B. subtilis; [6]): 1.0 centimeters
- zone of inhibition, Xanthohumol Expt #1 (B. subtilis; [6]): 1.1 centimeters
- zone of inhibition, Xanthohumol Expt #2 (B. subtilis; [6]): 0.9 centimeters
- zone of inhibition, Xanthohumol Avg (B. subtilis; [8]): 1.85 centimeters
- zone of inhibition, Xanthohumol Expt #1 (B. subtilis; [8]): 2.0 centimeters
- zone of inhibition, Xanthohumol Expt #2 (B. subtilis; [8]): 1.7 centimeters
- zone of inhibition, Xanthohumol Avg (B. megaterium [2]; [6]): 0.75 centimeters
- zone of inhibition, Xanthohumol Expt #1 (B. megaterium [2]; [6]): 0.8 centimeters
- zone of inhibition, Xanthohumol Expt #2 (B. megaterium [2]; [6]): 0.7 centimeters
- zone of inhibition, Xanthohumol Avg (B. megaterium [2]; [8]): 1.75 centimeters
- zone of inhibition, Xanthohumol Expt #1 (B. megaterium [2]; [8]): 1.6 centimeters
- zone of inhibition, Xanthohumol Expt #2 (B. megaterium [2]; [8]): 1.9 centimeters
- zone of inhibition, Xanthohumol Avg [3, 6]: 0.95 centimeters
- zone of inhibition, Xanthohumol Expt #1 [3, 6]: 0.9 centimeters
- zone of inhibition, Xanthohumol Expt #2 [3, 6]: 1.0 centimeters
- zone of inhibition, Xanthohumol Avg [3, 8]: 1.5 centimeters
- zone of inhibition, Xanthohumol Expt #1 [3, 8]: 1.3 centimeters
- zone of inhibition, Xanthohumol Expt #2 [3, 8]: 1.7 centimeters

Compound: NC[C@H]1O[C@H](O[C@H]2[C@H](O)[C@@H](O[C@H]3O[C@H](CO)[C@@H](O)[C@H](N)[C@H]3O)[C@H](N)C[C@@H]2N)[C@H](N)C[C@@H]1O [tobramycin]
- zone of inhibition, Xanthohumol Avg (S. salivarius [1]; [9]): 0.55 centimeters
- zone of inhibition, Xanthohumol Expt #1 (S. salivarius [1]; [9]): 0.6 centimeters
- zone of inhibition, Xanthohumol Expt #2 (S. salivarius [1]; [9]): 0.5 centimeters
- zone of inhibition, Xanthohumol Avg (S. salivarius [1]; [10]): 1.35 centimeters
- zone of inhibition, Xanthohumol Expt #1 (S. salivarius [1]; [10]): 1.4 centimeters
- zone of inhibition, Xanthohumol Expt #2 (S. salivarius [1]; [10]): 1.3 centimeters
- zone of inhibition, β-acid Avg (S. salivarius [1]; [11]): 0.55 centimeters
- zone of inhibition, β-acid Exp #1 (S. salivarius [1]; [11]): 0.6 centimeters
- zone of inhibition, β-acid Exp #2 (S. salivarius [1]; [11]): 0.5 centimeters
- zone of inhibition, β-acid Avg (S. salivarius [1]; [12]): 0.65 centimeters
- zone of inhibition, β-acid Exp #1 (S. salivarius [1]; [12]): 0.7 centimeters
- zone of inhibition, β-acid Exp #2 (S. salivarius [1]; [12]): 0.6 centimeters
- zone of inhibition, Xanthohumol Avg (B. subtilis; [9]): 1.0 centimeters
- zone of inhibition, Xanthohumol Expt #1 (B. subtilis; [9]): 1.1 centimeters
- zone of inhibition, Xanthohumol Expt #2 (B. subtilis; [9]): 0.9 centimeters
- zone of inhibition, Xanthohumol Avg (B. subtilis; [13]): 1.5 centimeters
- zone of inhibition, Xanthohumol Expt #1 (B. subtilis; [13]): 1.6 centimeters
- zone of inhibition, Xanthohumol Expt #2 (B. subtilis; [13]): 1.4 centimeters
- zone of inhibition, β-acid Avg (B. subtilis; [11]): 1.0 centimeters
- zone of inhibition, β-acid Exp #1 (B. subtilis; [11]): 1.1 centimeters
- zone of inhibition, β-acid Exp #2 (B. subtilis; [11]): 0.9 centimeters
- zone of inhibition, β-acid Avg (B. subtilis; [14]): 1.3 centimeters
- zone of inhibition, β-acid Exp #1 (B. subtilis; [14]): 1.4 centimeters
- zone of inhibition, β-acid Exp #2 (B. subtilis; [14]): 1.2 centimeters
- zone of inhibition, Xanthohumol Avg (B. megaterium [2]; [9]): 0.7 centimeters
- zone of inhibition, Xanthohumol Expt #1 (B. megaterium [2]; [9]): 0.8 centimeters
- zone of inhibition, Xanthohumol Expt #2 (B. megaterium [2]; [9]): 0.6 centimeters
- zone of inhibition, Xanthohumol Avg (B. megaterium [2]; [13]): 1.05 centimeters
- zone of inhibition, Xanthohumol Expt #1 (B. megaterium [2]; [13]): 1.1 centimeters
- zone of inhibition, Xanthohumol Expt #2 (B. megaterium [2]; [13]): 1.0 centimeters
- zone of inhibition, β-acid Avg (B. megaterium [2]; [11]): 0.7 centimeters
- zone of inhibition, β-acid Exp #1 (B. megaterium [2]; [11]): 0.8 centimeters
- zone of inhibition, β-acid Exp #2 (B. megaterium [2]; [11]): 0.6 centimeters
- zone of inhibition, β-acid Avg (B. megaterium [2]; [14]): 0.95 centimeters
- zone of inhibition, β-acid Exp #1 (B. megaterium [2]; [14]): 1.1 centimeters
- zone of inhibition, β-acid Exp #2 (B. megaterium [2]; [14]): 0.8 centimeters
- zone of inhibition, Xanthohumol Avg [3, 9]: 0.95 centimeters
- zone of inhibition, Xanthohumol Expt #1 [3, 9]: 0.9 centimeters
- zone of inhibition, Xanthohumol Expt #2 [3, 9]: 1.0 centimeters
- zone of inhibition, Xanthohumol Avg [3, 13]: 1.5 centimeters
- zone of inhibition, Xanthohumol Expt #1 [3, 13]: 1.5 centimeters
- zone of inhibition, Xanthohumol Expt #2 [3, 13]: 1.5 centimeters
- zone of inhibition, β-acid Avg [3, 11]: 0.9 centimeters
- zone of inhibition, β-acid Exp #1 [3, 11]: 0.9 centimeters
- zone of inhibition, β-acid Avg [3, 14]: 1.6 centimeters
- zone of inhibition, β-acid Exp #1 [3, 14]: 1.6 centimeters

Compound: neomycin
- zone of inhibition, Experiment 1 Control [3]: 23 mm
- zone of inhibition, Experiment 2 Control [3]: 26 mm
- zone of inhibition, Experiment 1 0.2 μg/ml β-resin [3]: 25 mm
- zone of inhibition, Experiment 2 0.2 μg/ml β-resin [3]: 24 mm

Compound: penicillin
- change of zone of inhibition when lupulone was added ([3]; Experiment 1, 0.2 μg/ml β-resin versus antibiotic alone): decline
- zone of inhibition, Experiment 1 Control [3]: 41 mm
- zone of inhibition, Experiment 2 Control [3]: 37 mm
- zone of inhibition, Experiment 1 0.2 μg/ml β-resin [3]: 39 mm
- zone of inhibition, Experiment 2 0.2 μg/ml β-resin [3]: 35 mm

Compound: polymyxin B
- MIC, agent alone (S. salivarius [4]; exp 1): >100 mg/L
- MIC, agent alone (S. salivarius [4]; exp 2): >100 mg/L
- MIC, agent alone (B. megaterium [5]; exp 1): >100 mg/L
- MIC, agent alone (B. megaterium [5]; exp 2): >100 mg/L
- zone of inhibition, Experiment 1 Control [3]: 0 mm
- zone of inhibition, Experiment 2 Control [3]: 0 mm
- zone of inhibition, Experiment 1 Control ([3]; listed as polymyxin B): no inhibition zone whatsoever
- zone of inhibition, Experiment 2 Control ([3]; listed as polymyxin B): zero
- zone of inhibition, Experiment 1 0.2 μg/ml β-resin [3]: 9 mm
- zone of inhibition, Experiment 2 0.2 μg/ml β-resin [3]: 8 mm
- MIC, agent alone (S. saprophyticus; exp 1): >100 mg/L
- MIC, agent alone (S. saprophyticus; exp 2): >100 mg/L
